From patent US20140106342A1, “METHOD OF ASSAYING DNA TOPOISOMERASES AND DNA BINDING PROTEINS USING HIGH THROUGHPUT SCREENING” (priority 2011, published 2014)
Residue numbers refer to the chain shown, from its start. Read-outs that look alike come from different tables or passages of the source. *1 amine or outer side, *2 acyl side, *3 side chain or, on linkers, in order; H or OH if unused. Where a SMILES comes first, the peptide text is derived from it. Bridges are numbered along the chain shown (N, C = ends). Roman numbers before positions name the chains, in order. [ ]: non-standard residue; d: D form. Actinocin(9to1) = Cc1c2oc3c(C)ccc(C(=O)[*:1])c3nc-2c(C(=O)[*:2])c(N)c1=O; NMeV = CN[C@H](C(=O)O)C(C)C; Sar = CNCC(=O)O

Legend:
[1] = molecular target: T1, Y723F topo I mutant (Homo sapiens, UniProt P11387, Y723F); test: Solid phase assay with catalytically inactive Y723F topo I mutant; type: biochemical; details: highest input of protein
T1 construct: purchased TopoGEN, Inc. (Port Orange, Fla.); host or cells: baculovirus expression (Sf9)
T1 sequence (P11387 1-765 Y723F): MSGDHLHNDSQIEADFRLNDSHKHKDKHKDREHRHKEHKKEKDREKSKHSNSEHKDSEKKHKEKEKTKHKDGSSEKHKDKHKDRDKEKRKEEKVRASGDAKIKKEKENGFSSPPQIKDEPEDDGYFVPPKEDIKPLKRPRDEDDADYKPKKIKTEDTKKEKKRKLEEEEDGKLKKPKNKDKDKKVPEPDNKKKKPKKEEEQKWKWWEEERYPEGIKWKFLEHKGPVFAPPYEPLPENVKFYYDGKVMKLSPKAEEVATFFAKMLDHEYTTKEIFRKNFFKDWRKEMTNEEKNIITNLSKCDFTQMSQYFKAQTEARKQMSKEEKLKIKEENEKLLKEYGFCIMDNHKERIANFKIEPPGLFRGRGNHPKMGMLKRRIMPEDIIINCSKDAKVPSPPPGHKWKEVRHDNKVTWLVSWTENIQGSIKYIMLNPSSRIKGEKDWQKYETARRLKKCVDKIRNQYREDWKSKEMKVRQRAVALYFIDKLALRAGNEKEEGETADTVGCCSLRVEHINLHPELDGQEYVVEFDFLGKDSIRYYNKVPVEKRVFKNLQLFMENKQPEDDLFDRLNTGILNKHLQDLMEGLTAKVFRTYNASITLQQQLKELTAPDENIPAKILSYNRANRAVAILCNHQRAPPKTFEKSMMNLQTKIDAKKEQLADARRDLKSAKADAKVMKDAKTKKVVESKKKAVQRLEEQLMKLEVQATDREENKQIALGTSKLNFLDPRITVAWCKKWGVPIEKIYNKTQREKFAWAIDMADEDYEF
Experimental: The unbound enzyme was removed by aspirating off the initial binding solution followed by three washes (about 200 uL each) with cold PBS containing about 0.05% Tween-20 (PBS-T). […] Drugs were dissolved in DMSO and the final DMSO concentration in the reaction never exceeded about 1%. Reactions were incubated for about 1 hr at about 37° C. and terminated by the addition of about 0.1 vol of about 1% SDS (vol:vol) followed by a about 5 min incubation at about 37° C.

[2] = molecular target: T2, human Topo I (Homo sapiens, UniProt P11387); test: Topo I cleavage complex formation / liquid reactions analysed on agarose-ethidium bromide gel
T2 sequence (P11387 1-765): T1 sequence (P11387 1-765 Y723F) with F723Y

[3] = molecular target: T2, human Topo I; test: Solid phase topo I HTS assay (His-tag topo I on nickel coated plates, pHOT1 DNA retention by Picogreen fluorescence); type: biochemical; parameters: The intact human topo I gene was cloned as a His-tag gene; purchased TopoGEN, Inc. (Port Orange, Fla.); host or cells: baculovirus-infected Spodoptera frugiperda Sf9 cells; details: for fold increase in DNA binding to wells due to CPT: 96 well
Experimental: FIG. 8 is a flowchart depicting the model for solid phase Topo I screening. […] Free enzyme is washed out and pHOT1 supercoiled DNA is added in a topo I assay buffer. […] Free DNA is then washed out and the relative fluorescence is measured using Picogreen staining. […] The results are expressed as an “HTS Ratio” corresponding to the RFU of experimental to RFU of negative controls (no CPT).
The unbound enzyme was removed by aspirating off the initial binding solution followed by three washes (about 200 uL each) with cold PBS containing about 0.05% Tween-20 (PBS-T). […] Drugs were dissolved in DMSO and the final DMSO concentration in the reaction never exceeded about 1%. Reactions were incubated for about 1 hr at about 37° C. and terminated by the addition of about 0.1 vol of about 1% SDS (vol:vol) followed by a about 5 min incubation at about 37° C. The reaction mixture was next aspirated and washed three times with about 200 uL PBS-T. Picogreen (about 100 ug/mL) was diluted in TE (about 1:400) and about 200 µl was added to each well followed by incubation in the dark for about 5 min. The relative fluorescence was measured at about 485 nm excitation and about 525 nm emission wavelength using a Tecan reader.
In step 5, the readout (relative fluorescent units or RFU retained in the wells) is analyzed based on what is referred to as the ‘HTS Ratio’ (RFU Experimental/RFU in negative control).
Free enzyme is washed out and pHOT1 supercoiled DNA is added in a topo I assay buffer. […] Free DNA is then washed out and the relative fluorescence is measured using Picogreen staining. […] The results are expressed as an “HTS Ratio” corresponding to the RFU of experimental to RFU of negative controls (no CPT).

[4] = tested on: pHOT1 DNA; test: Nicking of pHOT1 DNA in the absence of topo I
Experimental: . This may explain why some bifunctional alkylators are picked up by the assay. […]. Thus, about 5 compounds out of about 50 scored as potential topo I IFP at about 100 uM input of purified test drug (single asterisk, FIG. 10). A relatively high input of test drug concentrations to amplify false positives was; however, in a typical HTS experiment the concentrations would be much lower and would detect far fewer false leads. […].

[5] = test drug about 100 uM, about 1.0 = minus CPT control, solid phase

`CC[C@@]1(O)C(=O)OCc2c1cc1n(c2=O)Cc2cc3ccccc3nc2-1` [CPT, Camptothecin] was tested, and the “CPT stimulation of DNA binding with mutant protein” value [1] was “did not display any CPT stimulation”, the “time for CPT induced complexes to reach a maximal stoichiometric value” ([2]; in solution) was “within a few minutes” and the “magnitude of the increase in +CPT controls” value ([3]; 96 well format (comparison)) was “about 2.6 fold”. For the same compound, the “magnitude of the increase in +CPT controls” value ([3]; 384 well format) was “about 1.7 fold”, the “fraction of well-bound DNA that is nicked form II” value ([3]; CPT reactions, about 512 units topo I, about 5 uM CPT, no-CPT about 20%) was “about 70%” and the “fraction of well-bound DNA that is relaxed (Ir)” value ([3]; CPT reactions, about 512 units topo I, about 5 uM CPT, no-CPT about 80%) was “about 30%”. The “drug concentration dependency of solid phase readout” value ([3]; CPT titration, about 512 units topo I, about 100 ng DNA) was “did not display drug concentration dependency”, the “magnitude of the increase in form II DNA in +CPT wells over no drug controls” value ([3]; DNA recovered from wells, gel analysis) was 2-3 fold and the “fold increase in DNA binding to wells due to CPT” value ([3]; about 16-64 units topo I, about 5 uM CPT) was 1.2-2 fold. For the same compound, the “fold increase in DNA binding to wells due to CPT” value ([3]; about >100 units topo I, about 5 uM CPT) was 2.5-2.7 fold, the “mean relative fluorescence, +CPT” value ([3]; high topo I inputs (about 1024, about 512 units), SD +/- about 153, -CPT mean about 1181) was “about 2877” and the “time course of CPT induced complexes” value ([3]; solid phase) was “continue to accumulate over several hours”. For the same compound, the “relative fluorescence (RFU) of a typical reaction, + control” value ([3]; typical reaction, - control about 2000) was “about 4000 fluorescent units”.

With `Cc1c2oc3c(C)ccc(C(=O)N[C@@H]4C(=O)N[C@H](C(C)C)C(=O)N5CCC[C@H]5C(=O)N(C)CC(=O)N(C)[C@@H](C(C)C)C(=O)O[C@@H]4C)c3nc-2c(C(=O)N[C@@H]2C(=O)N[C@H](C(C)C)C(=O)N3CCC[C@H]3C(=O)N(C)CC(=O)N(C)[C@@H](C(C)C)C(=O)O[C@@H]2C)c(N)c1=O` [Dactinomycin] (I: T[dV]P[Sar][NMeV] / II: T[dV]P[Sar][NMeV]; ester I:1-I:C, II:1-II:C; linker I:N-II:N via Actinocin(9to1)) the “HTS Ratio (RFU experimental / RFU negative control, no CPT)” value [3, 5] was “about 1.4”.

In the case of `CCc1c2c(nc3ccc(OC(=O)N4CCC(N5CCCCC5)CC4)cc13)-c1cc3c(c(=O)n1C2)COC(=O)[C@]3(O)CC` [Irinotecan], the “HTS Ratio (RFU experimental / RFU negative control, no CPT)” value [3, 5] is reported as “about 1.4”.

`N[C@@H](Cc1ccc(N(CCCl)CCCl)cc1)C(=O)O` [Melphalan] was tested, and the “HTS Ratio (RFU experimental / RFU negative control, no CPT)” value [3, 5] was 1.2-1.3.

For `CNNCc1ccc(C(=O)NC(C)C)cc1` [Procarbazine], the “HTS Ratio (RFU experimental / RFU negative control, no CPT)” value [3, 5] was “about 1.65”.

`O=C(c1ccc(OCCN2CCCCC2)cc1)c1c(-c2ccc(O)cc2)sc2cc(O)ccc12` [Raloxifene] was tested, and the “HTS Ratio (RFU experimental / RFU negative control, no CPT)” value ([3]; test drug about 100 uM, about 1.0 = minus CPT control, solid phase, listed as Reloxifene) was “about 2.0”.

`CC/C(=C(\c1ccccc1)c1ccc(OCCN(C)C)cc1)c1ccccc1` [Tamoxifen] was tested, and the “induction of topo I cleavages” value ([2]; data not shown, less than with CPT) was “induced topo I cleavages”.

For `Oc1ncc(N(CCCl)CCCl)c(O)n1` [Uracil mustard], the “single strand DNA nicks in pHOT1 DNA” value [4] was “induce single strand DNA nicks” and the “HTS Ratio (RFU experimental / RFU negative control, no CPT)” value [3] was “about 1.1”.

`O=C1c2c(O)ccc(O)c2C(=O)c2c(NCCNCCO)ccc(NCCNCCO)c21` [mitoxantrone] was tested, and the “effect on DNA binding to bound topo I” value ([3]; solid phase HTS) was “strongly reduce DNA binding”.
